Test results as given in ChEMBL document CHEMBL2424591 (Bioorg Med Chem, 2013).

Molecular target: T1, Ribosyldihydronicotinamide dehydrogenase [quinone] (Homo sapiens, UniProt P16083)
T1 sequence (P16083 whole entry): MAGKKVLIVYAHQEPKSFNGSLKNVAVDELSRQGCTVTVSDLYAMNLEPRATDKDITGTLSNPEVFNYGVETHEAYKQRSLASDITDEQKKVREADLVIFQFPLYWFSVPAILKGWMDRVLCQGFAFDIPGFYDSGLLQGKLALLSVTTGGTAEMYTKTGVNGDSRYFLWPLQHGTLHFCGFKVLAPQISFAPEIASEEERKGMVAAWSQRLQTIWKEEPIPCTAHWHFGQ
Test: Inhibition of human quinone reductase 2 expressed in Escherichia coli BL21(DE3) using N-methyldihydronicotinamide as co-substrate

IC50 [µM] | SMILES
2.8 | C/C(=C\c1ccc(C(F)(F)F)cc1)c1ccc(O)cc1
20.1 | COc1ccc(/C(C)=C/c2cc(OC)cc(OC)c2)cc1
5.9 | N#C/C(=C\c1cc(O)cc(O)c1)c1ccc(O)cc1
12 | COc1ccc(/C(C)=C/c2cc(O)cc(O)c2)cc1
6 | Oc1ccc(/C=C/c2ccc(O)c(O)c2)cc1
6.7 | COc1ccc(/C(C)=C/c2ccc(OC)c(OC)c2)cc1
0.73 | COc1cc(/C=C/c2ccc3ccccc3c2)cc(OC)c1
9.3 | COc1ccc(/C=C/c2ccc(O)c(O)c2)cc1
< 14.2 | Oc1ccc(/C=C/c2ccc(C(F)(F)F)cc2)cc1O
5.5 | COc1ccc(/C=C/c2ccc3ccccc3c2)cc1OC
33.7 | COc1ccc(/C(C)=C/c2cc(O)cc(O)c2)cc1OC
27.5 | COc1ccc(/C(=C\c2cc(OC)cc(OC)c2)CO)cc1
25.5 | O=C/C(=C/c1cc(O)cc(O)c1)c1ccc(O)cc1
16.8 | O=C(Nc1cc(O)cc(O)c1)c1ccc(O)cc1
5.1 | OC/C(=C\c1cc(O)cc(O)c1)c1ccc(O)cc1
4.6 | COc1cc(/C=C/c2ccc(F)cc2)cc(OC)c1

IC50 [µM] | SMILES
16.3 | CC/C(=C\c1cc(OC)cc(OC)c1)c1ccc(OC)c(OC)c1
39 | C/C(=C\c1cc(O)cc(O)c1)c1ccc(O)cc1
24.2 | COc1ccc(/C(C=O)=C/c2cc(OC)cc(OC)c2)cc1
9.3 | NC(=O)/C(=C\c1cc(O)cc(O)c1)c1ccc(O)cc1
13 | COc1ccc(/C=C/c2ccc(N(C)C)cc2)cc1OC
10.9 | CC/C(=C\c1ccc(N(C)C)cc1)c1cc(O)cc(O)c1
5.1 | COc1cc(/C=C/c2ccc(O)cc2)cc(OC)c1 [PTEROSTILBENE]
6.8 | COc1cccc(/C=C/c2ccc(OC)c(OC)c2)c1
31.6 | COc1ccc(/C(C#N)=C/c2cc(OC)cc(OC)c2)cc1
27.6 | O=C(Nc1ccc(O)cc1)c1cc(O)cc(O)c1
20.8 | Oc1ccc(/C=C/c2cccc(F)c2)cc1O
13 | COc1ccc(/C=C(/c2cc(OC)cc(OC)c2)C(F)(F)F)cc1
0.18 | COc1ccc(/C=C(/c2cccc(C(F)(F)F)c2)C(F)(F)F)cc1OC
9.9 | COc1cc(/C=C(\C)c2ccc(OC)c(OC)c2)cc(OC)c1
4.8 | C/C(=C\c1ccc(O)cc1)c1cc(O)cc(O)c1

SMILES | IC50 [µM]
COc1cc(/C=C/c2ccc(OC)c(OC)c2)cc(OC)c1 [(E)-3,4,3',5'-TETRAMETHOXYSTILBENE] | 37.1
COc1ccc(/C=C/c2cc(OC)cc(OC)c2)cc1 [TRISMETHOXYRESVERATROL] | 14.6
